The values below come from patent publication US20160324884A1, “TREATMENT OF DIABETES WITH PENTACYCLIC TRITERPENOID SAPONIN COMPOUNDS FROM SZECHUAN MELANDIUM ROOT” (priority 2013, published 2016).

What all share (assay type): in vivo
Experiment [1] relates to KK^Ay mice. Put plainly: Hepatic and muscle glycogen in KK^Ay mice (Example 3). The settings on record: 2.0 mg/kg Sc, after 2 weeks, vs model group. An excerpt:
(§1) 60 KK^Ay mice were adaptively bred for 1 week, and then randomly assigned into 6 groups: Model group, Compound (1) group, Compound (2) group, Compound (3) group, Compound (4) group, and metformin group, 10 mice per group. 10 normal C57BL/6 mice were used for the control group. KK^Ay mice were in a high-fat diet, and the control normal mice were in a normal control diet. The control and model groups were hypodermically injected with sterile water, the 6 medicated groups mice were subcutaneously injected with […] Wacao saponins, (Compounds (1), (2), (3) and (4)) respectively, and the positive group was administered metformin by gavage. All mice were administrated at 9 am for 2 weeks and the administration volume is 10 ml/kg BW.
(§2) The body weight, food and water intake of each mouse was measured and recorded weekly throughout the course of the experiment. At the end of the experiment, collected the blood and separated serum, fasting blood glucose, insulin levels and insulin sensitivity index (ISI) were measured or calculated in each group. Liver, skeletal muscles of mice in each group were taken and weighed for detecting glycogen levels of the hepatic and muscles after mice being killed.
(§3) Compound (1), (2), (3) and (4) were respectively dissolved into sterile water, and sterilized with filtration for Sc. to the medication groups. The metformin was dissolved into sterile water for lg. to the positive control group. Control and model groups animals were injected with sterile water (10 ml/kg BW), Sc. All the animals were treated daily at 9 am for 2 weeks (14 days).
(§4) Blood detection: Blood glucose was measured weekly. Overnight fasting glycemia level was measured with One Touch ULTRA Glucometer for the tail blood test. At the end of the experiment, blood serum was collected for measuring levels of fasting blood glucose and insulin, and the insulin sensitivity index (ISI) was calculated. At the same time, hepatic tissues and skeletal muscles of mice were taken out to determine levels of hepatic and muscle glycogen by detection kits.

Experiment [2] relates to KK^Ay mice. The experiment is described as follows: Glycemia in KK^Ay mice during treatment and after withdrawal (Example 3).
Source text: (§5) 60 male KK^Ay mice (12 weeks of age, License NO. SCXK (BJ) 2009-0015, Beijing Huafukang Biology Technology Co. Ltd.) and 10 normal male C57BL/6 mice (12 weeks of age, License NO. SCXK (BJ) 2009-0015, Beijing Huafukang Biology Technology Co. Ltd.) were adaptively bred for one week, and then used in the following experiment.
as §1, §3, §4
Termination of the experiment After administrating mice for 2 weeks (14 days), the experiment was terminated.
This experiment is to observe the anti-hyperglycemia effects of Wacao saponins on KK^Ay mice during and after the period of drug treatment, respectively.

The subject of experiment [3] is KK^Ay mice. Put plainly: Body weight, food and water intake in KK^Ay mice (Example 3). The conditions noted are these: vs model group.
Source text: as §5
The animals were housed individually in wood-chip-bedded plastic cages. Germ-free and high-fat diets (Beijing Huafukang Biology Technology Co. Ltd.) were used to feed the KK^Ay mice. All the animals had free access to food and water.
as §1, §2, §3
Measurement of food and water intake: 24 hours' food and water intake were measured by gravimetry once a week. It should be paid attention to recycling leakage of small forage into the feed box to ensure the accuracy of food intake.
Determination of body weight: The body weight of mice was measured and recorded once a week.
Results are shown as means±SD. Statistical analysis data were analyzed by using SPSS 10.0 software. Data were evaluated with analysis of variance.

For experiment [4], the system named is KK^Ay mice. Put plainly: Blood insulin content and insulin sensitivity index (ISI) in KK^Ay mice (Example 3). The settings on record: serum, after 2 weeks treatment, vs model group.
Source text: as §1
The body weight, food and water intake of each mouse was measured and recorded weekly throughout the course of the experiment. At the end of the experiment, collected the blood and separated serum, fasting blood glucose, insulin levels and insulin sensitivity index (ISI) were measured or calculated in each group. […]
Blood detection: Blood glucose was measured weekly. Overnight fasting glycemia level was measured with One Touch ULTRA Glucometer for the tail blood test. At the end of the experiment, blood serum was collected for measuring levels of fasting blood glucose and insulin, and the insulin sensitivity index (ISI) was calculated. […]

The subject of experiment [5] is KK^Ay mice. The experiment is described as follows: Effects of Wacao saponins on glycemia in KK^Ay T2DM mice (Example 2). An excerpt: 80 male KK^Ay mice (12 weeks of age, License NO. SCXK (BJ) 2009-0015, Beijing Huafukang Biology Technology Co. Ltd.) and 10 male normal C57BL/6 mice (12 weeks of age, License NO. SCXK (BJ) 2009-0015, Beijing Huafukang Biology Technology Co. Ltd.) were adaptively bred for one week, and then used in the pharmacological experiment.
The animals were housed individually in wood-chip-bedded plastic cages. Germ-free and high-fat diets (Beijing Huafukang Biology Technology Co. Ltd.) were used to feed the KK^Ay mice, and the standard laboratory chows were used to feed normal C57BL/6 mice. All the animals had free access to food and water.
80 KK^Ay mice were adaptively bred for 1 week, and then randomly assigned into 8 groups: Model group, Compound (1) group, Compound (2) group, Compound (3) group, Compound (4) group, Compound (7) group, Compound (8) group and metformin group, 10 mice per group. 10 normal C57BL/6 mice were used as the control group. KK^Ay mice were fed with the high-fat diet, and the control group was fed with the normal control diet. The control and model groups were hypodermically injected with sterile water, 6 medicated groups were hypodermically injected with 6 kinds of Wacao saponins, the Compounds (1), (2), (3), (4), (7) and (8), and the positive group (metformin group) was irrigated per oral. All groups were administrated at 9 am for 2 weeks. The administrating volume is 10 ml/kg BW and the administration dosage is shown in Table3.
All mice of the fasting tail blood glucose level were measured weekly using One Touch ULTRA Glucometer (Life Scan Johnson and Johnson, USA).
Each compound of Wacao saponins was dissolved into sterile water and sterilized with filtration for Sc. The metformin was dissolved into sterile water for lg. The control and model group mice were injected with sterile water, Sc. All the animals were treated at 9 am for 2 weeks.
Overnight fasting tail blood glucose level was measured weekly using One Touch ULTRA Glucometer and measured for twice.
Each group was administrated for 2 weeks (14 days) and then the experiment was terminated.
Results are expressed as means±SD. Statistical analysis were analyzed by using SPSS 10.0 software. Data were evaluated with analysis of variance.

Turning to `COC(=O)C1OC(O[C@H]2CC[C@]3(C)[C@H]4C=CC5[C@@H]6CC(C)(C)CC[C@]6(C(=O)OC6OC(C)C(OC(=O)/C=C\c7ccc(C)cc7)C(OC(C)=O)C6OC6OC(C)C(O)C(O)C6O)[C@H](O)C[C@@]5(C)[C@]4(C)CC[C@H]3[C@]2(C)C=O)C(OC2OC(CO)C(O)C(O)C2O)C(OC2OCC(O)C(O)C2O)C1O` (stereo partly drawn) [Compound (4), sinocrassuloside IX], the muscle glycogen level entry in the experiment on KK^Ay mice [1] was “weaker efficacy in raising level of muscle glycogen which had no statistical significant difference compared with that of the model group”. The “anti-hyperglycemia effect compared with metformin” value in the experiment with KK^Ay mice [2] (KK^Ay mice, 2.0 mg/kg Sc vs metformin 500 mg/kg lg) was “all treatment groups except Compound (4) had stronger anti-hyperglycemia effects than that of metformin”. For the same molecule, the glycemia level result in the experiment on KK^Ay mice [2] (KK^Ay mice, after 1 week, compounds 2.0 mg/kg Sc, metformin 500 mg/kg lg, vs model group) is “each treatment group, except the Compound (4) group, showed a significantly decrease”. Also, the “descending rates of blood glucose” value with KK^Ay mice [2] (T2DM mice, 2 mg/kg, two weeks after subcutaneous injection) is listed as 50%. In addition, the food intake entry with KK^Ay mice [3] (after 2 weeks, compounds 2.0 mg/kg Sc, metformin 500 mg/kg lg) is “except the Compound (4) group, mice in all groups showed obvious reduction in food intake”. Also, in the experiment on KK^Ay mice [3] (week 1, 2.0 mg/kg Sc), the water intake entry is “decreased significantly (p<0.05 or p<0.01, vs. model group), except Compound (4) group in week 1”. Also, the insulin level entry in the experiment with KK^Ay mice [4] is on record as “all groups except Compound (4) increased significantly”. Besides, in the experiment on KK^Ay mice [5] (2.0 mg/kg BW Sc daily, after 1 week, vs model group), the “glycemia (fasting tail blood glucose), hypoglycemic activity” value was “then followed by Compound (2), Compound (4), Compound (3) and Compound (7)”. Further, the “anti-hyperglycemia effect, compounds compared with each other” value in the experiment on KK^Ay mice [5] (2.0 mg/kg BW Sc, 2 weeks, ranking) is “followed by Compound (3) and (4) (cis-trans-isomers), and Compound (7)”.
